Results as given in US20230381210A1, “COMPOSITION FOR PREVENTION, AMELIORATION, OR TREATMENT OF HYPERSENSITIVITY IMMUNE DISEASE CONTAINING GALACTOSE” (Quorum Bio Co., Ltd., priority 2020, published 2023).

Tests used:
Type in all cases: in vivo, BALB/c mice
[1] = system: DNCB-induced atopic dermatitis mouse model; assay: Clinical scoring (rubefaction, keratin formation, crust formation) in DNCB-induced atopic dermatitis mouse model; conditions: oral 100 or 200 mg/kg daily (G5, G6) vs negative control (G3); FIG. 4
Procedure: An animal experiment in the following example was performed in accordance with the regulations set forth by Chonnam National University IACUC in an environment maintained at 50±5% humidity and 24˜26° C. temperature. 7-week-old male BALB/c mice (Damool Science Co., Ltd.) bred as a test animal were used, and after being acclimatized in a laboratory environment for one week while supplying enough feed and water, they were used in the experiment. Non-allergenic, dust-free, non-toxic, absorbent and pathogen-free bedding was used, and the cage was changed once a week to maintain a clean environment, and water was freely supplied with a water bottle. […] On the day 16 after the first DNCB application (just before necropsy), ear thickness and clinical symptoms of the mice were measured. The mice prepared in Reference example 1 were evaluated for clinical symptoms (rubefaction, keratin formation (dryness degree), crust formation), and ear thickness was measured and then recorded three times a week (Monday, Wednesday, Friday). Ear thickness was measured three times a week using Caliper (R12-1A, Ozaki, Tokyo, Japan). […] For the mice prepared in Reference example 1, the clinical symptoms of the three items (rubefaction, keratin formation (dryness), crust formation) were scored on the basis of the following: 0 point; none, 1 point; mild, 2 points; moderate, 3 points; severe.

[2] = system: DNCB-induced atopic dermatitis mouse model; assay: Total IgE in serum by ELISA in DNCB-induced atopic dermatitis mouse model; conditions: oral 200 mg/kg daily (G6) vs negative control (G3); day 16; FIG. 7
Procedure: An animal experiment in the following example was performed in accordance with the regulations set forth by Chonnam National University IACUC in an environment maintained at 50±5% humidity and 24˜26° C. temperature. 7-week-old male BALB/c mice (Damool Science Co., Ltd.) bred as a test animal were used, and after being acclimatized in a laboratory environment for one week while supplying enough feed and water, they were used in the experiment. Non-allergenic, dust-free, non-toxic, absorbent and pathogen-free bedding was used, and the cage was changed once a week to maintain a clean environment, and water was freely supplied with a water bottle. […] On the day 16 after the first DNCB application (just before necropsy), ear thickness and clinical symptoms of the mice were measured. At autopsy (16 days after first DNCB application), whole blood was collected, and then serum was separated and the IgE level in serum was measured by ELISA. As total IgE in serum was increased, when DNCB was treated to skin in the DNCB-induced atopic dermatitis mouse model, in the present example, by collecting blood right before autopsy of the mice prepared in Reference example 1 and then isolating serum and evaluating the total amount of IgE (ug/ml) in serum through ELISA method, a protective effect of atopic dermatitis was indirectly evaluated.

[3] = system: DNCB-induced atopic dermatitis mouse model; assay: Spleen and lymph node weight in DNCB-induced atopic dermatitis mouse model; conditions: oral 100 or 200 mg/kg daily (G5, G6) vs negative control (G3)
Procedure: An animal experiment in the following example was performed in accordance with the regulations set forth by Chonnam National University IACUC in an environment maintained at 50±5% humidity and 24˜26° C. temperature. 7-week-old male BALB/c mice (Damool Science Co., Ltd.) bred as a test animal were used, and after being acclimatized in a laboratory environment for one week while supplying enough feed and water, they were used in the experiment. Non-allergenic, dust-free, non-toxic, absorbent and pathogen-free bedding was used, and the cage was changed once a week to maintain a clean environment, and water was freely supplied with a water bottle. Galactose was pre-administered for 2 weeks from the period when the prepared mice were 8-week-old. Pre-administration was performed by oral administration once a day for 2 weeks, and the dose of galactose was 100 mg/kg or 200 mg/kg, respectively. As a control group, mice administered (orally) with PBS for the same period were prepared. […] On the day 16 after the first DNCB application (just before necropsy), ear thickness and clinical symptoms of the mice were measured. […] In the present example, by measuring the weight of the spleen and armpit lymph nodes right before autopsy of the mice prepared in Reference example 1, a protective effect of atopic dermatitis was indirectly evaluated.

[4] = system: DNCB-induced atopic dermatitis mouse model; assay: Visual confirmation of skin lesions in DNCB-induced atopic dermatitis mouse model; conditions: oral 100 or 200 mg/kg daily (G5, G6) vs negative control (G3, PBS); FIG. 2, n=2 per group
Procedure: An animal experiment in the following example was performed in accordance with the regulations set forth by Chonnam National University IACUC in an environment maintained at 50±5% humidity and 24˜26° C. temperature. 7-week-old male BALB/c mice (Damool Science Co., Ltd.) bred as a test animal were used, and after being acclimatized in a laboratory environment for one week while supplying enough feed and water, they were used in the experiment. Non-allergenic, dust-free, non-toxic, absorbent and pathogen-free bedding was used, and the cage was changed once a week to maintain a clean environment, and water was freely supplied with a water bottle. Galactose was pre-administered for 2 weeks from the period when the prepared mice were 8-week-old. Pre-administration was performed by oral administration once a day for 2 weeks, and the dose of galactose was 100 mg/kg or 200 mg/kg, respectively. As a control group, mice administered (orally) with PBS for the same period were prepared. After 2 weeks of pre-administration, the hairs on the mouse head and back of the mice were removed using a clipper and depilatory cream. […] On the day 16 after the first DNCB application (just before necropsy), ear thickness and clinical symptoms of the mice were measured. […]

[5] = system: DNCB-induced atopic dermatitis mouse model; assay: Ear thickness measurement in DNCB-induced atopic dermatitis mouse model; conditions: oral 100 or 200 mg/kg daily (G5, G6); FIG. 3
Procedure: An animal experiment in the following example was performed in accordance with the regulations set forth by Chonnam National University IACUC in an environment maintained at 50±5% humidity and 24˜26° C. temperature. 7-week-old male BALB/c mice (Damool Science Co., Ltd.) bred as a test animal were used, and after being acclimatized in a laboratory environment for one week while supplying enough feed and water, they were used in the experiment. Non-allergenic, dust-free, non-toxic, absorbent and pathogen-free bedding was used, and the cage was changed once a week to maintain a clean environment, and water was freely supplied with a water bottle. Galactose was pre-administered for 2 weeks from the period when the prepared mice were 8-week-old. Pre-administration was performed by oral administration once a day for 2 weeks, and the dose of galactose was 100 mg/kg or 200 mg/kg, respectively. […] On the day 16 after the first DNCB application (just before necropsy), ear thickness and clinical symptoms of the mice were measured. The mice prepared in Reference example 1 were evaluated for clinical symptoms (rubefaction, keratin formation (dryness degree), crust formation), and ear thickness was measured and then recorded three times a week (Monday, Wednesday, Friday). Ear thickness was measured three times a week using Caliper (R12-1A, Ozaki, Tokyo, Japan). […]

SMILES: O=C[C@H](O)[C@@H](O)[C@@H](O)[C@H](O)CO [galactose]
- score of clinical symptoms (sum of rubefaction, keratin formation, crust formation scores) [1]: significantly reduced
- total amount of IgE in serum [2]: significantly reduced
- weight of spleen ([3]; FIG. 5): generally reduced
- weight of lymph nodes (armpit) ([3]; FIG. 6): generally reduced
- degree of crust formation [4]: reduced
- degree of skin rubefaction [4]: suppressed
- ear thickness [5]: significantly reduced
